In patent US9375436B2, “Androgen treatment in females” (priority 2004, dated 2016):
Values joined by “and” are separate entries in the source; they are usually repeats but may differ in a detail not shown here. Equal values may be shown once. “Also recorded” adds a separate entry of the source.

Columns and labels:
[1] = system: women with diminished ovarian function; assay: Case control study of clinical pregnancy with DHEA supplementation (Example 7); format: in vivo, human
Description: A case control study of 190 women over 30 years old with diminished ovarian function were studied between 1999 and December 2005. The study group included 89 patients with a mean age of about 41.6 who used supplementation of about 75 mg daily of oral, micronized DHEA for up to four months prior to entry into IVF. […] The primary outcome was clinical pregnancy after the patient's initial visit.
Ovarian stimulation was identical for study and control groups and consisted of microdose agonist flare, followed by maximal dosage gonadotropin stimulation, using about 300-450 IU of FSH and about 150 IU of HMG. Study patients received DHEA continuously until a positive pregnancy test was obtained or until the patient dropped out of treatment.
In an additional study, a retrospective analysis of a 190 women with diminished ovarian function above 30 years old, who were treated between 1999 and December 2005 was completed to assess the impact of DHEA supplementation on the time interval to the establishment of pregnancy.
A prequalification for each patient's diagnosis of diminished ovarian function was either a sub-diagnosis of premature ovarian aging (POA) or a sub-diagnosis of diminished ovarian reserve (DOR). POA was, in turn, defined as baseline follicle stimulating hormone (b-FSH), on Day 2/3 of a cycle as <12 mIU/ml, but exceeding the 95% CI of the mean value for the patient's age group.
Specifically, this meant b-FSH≧7.4 mIU/ml at age 30-34 years and ≧8.6 mIU/ml at age≧35 years. DOR, in turn, was defined as b-FSH≧12 mIU/ml and/or a baseline estradiol level≧75 pg/ml. 49 patients were confirmed with POA and 52 patients were confirmed with DOR, creating a control group of 101 women. Because of potential impending loss of ovarian function in the control group women, the control group women were treated with IVF as soon as possible.
During the time studied, the study group consisted of 89 patients, with diminished ovarian function (POA 24, DOR 65). Each person in the study group was placed on DHEA supplementation. The DHEA supplementation included administering about 25 mg of (pharmaceutical grade) micronized DHEA, three times daily, for up to about four months (mean 3.8±0.3 months). […] This delay of IVF treatment allowed the possibility of spontaneously conceived pregnancies.
(§1) Ovarian stimulation was identical for study and control groups and comprised microdose agonist flare, followed by maximal dosage gonadotropin stimulation, using about 300-450 IU of FSH and about 150 IU of HMG. Study patients received DHEA continuously until a positive pregnancy test was obtained or until the patient dropped out of treatment. DHEA and DHEAS levels were monitored monthly, and patients were interviewed at each visit about adverse reactions to DHEA supplementation.
In order to assess the impact of DHEA supplementation on time interval to the establishment of pregnancy, this study was designed as a life-table analysis, measuring not only total pregnancy rates but also the time between initial presentation and end of last treatment intervention.
Each recorded clinical pregnancy, defined as positive fetal cardiac activity on ultrasound examination after 6 weeks, was recorded as a positive outcome. Patients who continued treatments beyond the study period or stopped treatments were considered right censored data at the end of the study period, or at treatment cessation, respectively.
A Cox regression analysis was used to evaluate time-to-event. The model that we used stratified for level of ovarian reserve (POA and DOR) and adjusted for age, day 3 FSH, fertility treatments (none, Intrauterine Insemination and controlled ovarian hyperstimulation (IUI/COH), or IVF) and race/ethnicity. A trend in pregnancy rates over months of DHEA exposure with an interaction term for time and DHEA months of exposure was tested. SPSS for Windows, Standard version 10.0.7 (SPSS Co. Chicago, Ill.) was utilized for data analysis. Continuous outcomes are presented as mean±1 standard error. […]

[2] = system: women waiting to go into an IVF cycle; assay: Spontaneous conceptions in women on DHEA waiting to go into IVF; format: in vivo, human
Description: Additionally, with DHEA treatment, there may be an unexpectedly large number of spontaneous conceptions in women waiting to go into an IVF cycle. DHEA treatment includes administering a dose of between about 50 mg/day and about 100 mg/day, preferably between about 60 mg/day and about 80 mg/day, and in one study about 75 mg/day to a human. Particularly, the DHEA treatment may be administered to a premenopausal person with diminished ovarian function. DHEA may have an effect after about 4 consecutive weeks. However, DHEA has a more significant effect after about 8 weeks or about 2 months of administration, but its effect may continue to increase to about four months, and further may continue past four months of use. Specifically, DHEA treatment has a statistically significant effect after about at least 16 weeks or about at least 4 months of administration.
The DHEA treatment may be at least about 2 weeks before spontaneous conception occurs. In the population of women who are waiting to go into IVF, the spontaneous pregnancy rate is a fraction of about 1% per month. However, in the population of women who have been on DHEA treatment, there were 13 spontaneous pregnancies out of 60 women. As such, DHEA treatment increases spontaneous pregnancies in one study at least about 21 fold. […]

[3] = Side effects and complications of DHEA supplementation; format: in vivo, human
Description: We maintained in all studies and treatment protocols the oral medication dosage of about 25 mg TID (three times a day for a total of about 75 mg per day), used by our index patient. […] Studies to determine best dosaging of DHEA in the treatment of DOR have so far not been performed.
as §1

[4] = system: proven poor responders to ovarian stimulation with gonadotropins; settings: 80 mg micronized DHEA for two months; five poor responders, six IVF cycles; cited from earlier work
[5] = DHEA group, intrauterine insemination, no IVF
[6] = DHEA group, no other treatment than DHEA

## C[C@]12CC[C@H](O)CC1=CC[C@@H]1[C@@H]2CC[C@]2(C)C(=O)CC[C@@H]12 [DHEA, Dehydroepiandrosterone]
[1]; Cox regression, 95% CI 1.2 to 11.8
  proportional hazards ratio for clinical pregnancy relative to controls (HR): 3.8
[1]; DHEA group
  Implantation (FH/Embryos trans): (11.4%)
  Implantation (FH/Embryos trans) (n/N): 13/101
  Miscarriage (Per clinical Pregnancy) (n/N): 5 of 25 and 5/25
  Normal Day 3 embryos: 2.4±0.03 and 2.4 ± 0.3
  Oocytes: 3.9 ± 0.4
  Positive hCG (>25 mIU/ml): (30%)
  Positive hCG (>25 mIU/ml) (n/N): 26/88
  Transferred embryos: 2.1±0.2
  pregnancies established spontaneously (no IVF treatment) out of the 25: 12
[1]; DHEA group, all 89 patients
  Clinical Pregnancy (n/N): 25 of 89 and 25/89
[1]; [5]
  Clinical Pregnancy, IUI/COH: (66.7%)
  Clinical Pregnancy, IUI/COH (n/N): 6 of 9 and 6/9
[1]; [6]
  Clinical Pregnancy, No Treatment: (35.3%)
  Clinical Pregnancy, No Treatment (n/N): 6 of 16 and 6/16
[1]; DHEA group, patients reaching IVF
  Clinical Pregnancy, IVF (n/N): 13/64
[1]; DHEA group, about 25 mg three times daily, 3.8 ± 0.3 months
  Cancellation (IVF) (n/N): 9/63
[1]; DHEA versus control
  decrease of the miscarriage rate: about 44%
  increase of the percentage of clinical pregnancies: about 157%
[1]; approximately two months after initiation of treatment
  mean DHEA and DHEAS levels at cycle day 2: in the low normal ranges
[1]; correction for time dependent variables, 95% CI 1.6 to 14.2
  proportional hazards estimation of pregnancy (HR), extended Cox models: 4.8
[2]; versus fraction of about 1% per month in women waiting for IVF
  increase of spontaneous pregnancies: at least 21 fold
[2]; women on DHEA treatment
  spontaneous pregnancies out of 60 women: 13
[3]; oral DHEA about 25 mg TID
  side effects: small and primarily relate to androgen effects; also recorded: mild transient acne on the face, chest or back, oily skin and mild hair loss; also recorded: appears safe and results in only minor side effects; also recorded: limited to oily skin, rarely mild acne vulgaris and mild hair loss
[3]; over 1,000 patients supplemented with DHEA
  complications: not encountered even a single complication of serious clinical significance
[4]
  response to ovarian stimulation compared with prior unsupplemented cycle: improved responsiveness
